Test system: IL-8
Test: Expression of IL-8 by epidermal human skin model (EST-1000) after IL-1alpha stimulation
Assay type: cell-based
Settings: Table 7, 2 wt.-% in vehicle
Method: The Expression of IL-8 by epidermal human skin model after IL-1alpha stimulation has been assessed using 3D-Reconstituted Epidermis Models (EST-1000) (Cellsystems GmbH, St. Katharinen, Germany). The EST-1000 samples were equilibrated over night at 37° C. in a 5% CO^2 atmosphere according to manufacturer's instructions. Then, the EST-1000 samples were stimulated by addition of 10 ng/ml IL-1alpha (Peprotech, UK) to the culture medium.
Afterwards, one sample was treated with the vehicle (i.e. squalane, e.g. commercially available under the tradename Fitoderm®), whereas the other sample was treated with a mixture consisting of the vehicle comprising 2 wt.-% of the mixture of example 1 by topical addition to the tissue samples. At distinct time points, 200 ul medium samples were taken and frozen for further analysis. As can be retrieved from the results presented in table, the expression of the pro-inflammatory cytokine IL-8 by the epidermal human skin model (EST-1000) is suppressed by the addition of the composition according to example 1 in a dose dependent manner.
Furthermore, the expression of IL-8 by epidermal human skin model after IL-1alpha stimulation was assessed as outlined above using the single compounds CLA, Syn Coll®, spent grain wax as well as mixtures thereof.

Conjugated linoleic acid [CLA]
Expression of cytokine IL-8, T = 24 h (T = 24 h): 8161
Expression of cytokine IL-8, t = 0 h (t = 0 h): 61
Expression of cytokine IL-8, t = 2 h (t = 2 h): 2536
Expression of cytokine IL-8, t = 4 h (t = 4 h): 5056
Expression of cytokine IL-8, t = 8 h (t = 8 h): 5805

From patent US20120064020A1, “NOVEL COMPOSITION” (priority 2009, published 2012)
